Source: US8772500B2, “TRPV3 modulators” (AbbVie Inc., priority 2011, dated 2014)
One block for each compound: values may come before it.

Legend:
[1] = molecular target: T1, human TRPV3 (Homo sapiens, UniProt Q8NET8); experiment: In vitro antagonism of recombinant human TRPV3 activation (FLIPR Tetra calcium assay, 2-APB as agonist); type: cell-based; details: HEK293 cells stably expressing human TRPV3; 2-APB 80 μM; range class; read-out: IC50 (reported range)
T1 construct: expressed in transfected cells
T1 sequence (Q8NET8 1-790): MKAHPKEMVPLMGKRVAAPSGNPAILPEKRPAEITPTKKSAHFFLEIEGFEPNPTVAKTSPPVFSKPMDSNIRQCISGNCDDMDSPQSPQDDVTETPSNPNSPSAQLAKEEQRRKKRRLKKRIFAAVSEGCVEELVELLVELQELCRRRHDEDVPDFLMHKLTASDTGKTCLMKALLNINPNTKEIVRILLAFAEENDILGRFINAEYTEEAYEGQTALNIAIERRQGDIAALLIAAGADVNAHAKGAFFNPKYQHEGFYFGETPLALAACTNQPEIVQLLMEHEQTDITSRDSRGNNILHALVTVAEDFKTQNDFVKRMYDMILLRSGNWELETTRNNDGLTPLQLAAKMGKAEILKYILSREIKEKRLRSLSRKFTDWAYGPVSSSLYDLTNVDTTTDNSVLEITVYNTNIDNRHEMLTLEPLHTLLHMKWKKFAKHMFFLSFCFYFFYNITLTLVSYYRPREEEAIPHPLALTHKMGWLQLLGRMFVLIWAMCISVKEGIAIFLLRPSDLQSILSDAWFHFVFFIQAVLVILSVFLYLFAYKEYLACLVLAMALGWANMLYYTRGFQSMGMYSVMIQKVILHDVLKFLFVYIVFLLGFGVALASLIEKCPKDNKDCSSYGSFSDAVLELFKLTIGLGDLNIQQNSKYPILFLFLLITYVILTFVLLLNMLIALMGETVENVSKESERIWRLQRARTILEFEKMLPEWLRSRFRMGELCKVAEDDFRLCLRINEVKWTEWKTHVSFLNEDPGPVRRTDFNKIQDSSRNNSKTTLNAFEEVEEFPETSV
In short: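 HEK293 cells stably expressing human TRPV3, loaded with Calcium-4 dye for 90-120 min; compound added 3 min before 2-APB at 80 μM (its EC80). Fluorescence (max minus min) over 10 min expressed as % of maximal 2-APB response without antagonist; IC50 mostly averaged from n≧2 runs.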

[2] = In vitro human microsomal stability assay; type: in vitro ADME; details: human, 0.5 h, 0.5 μM, pH 7.4
In short: (§1)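 Metabolic stability was measured in liver microsomes from Sprague-Dawley rat or from human. Incubations ran at 37 °C with NADPH as cofactor, and NADPH was also added to the time-zero samples.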

[3] = In vitro rat microsomal stability assay; type: in vitro ADME, rat (Sprague-Dawley); details: Sprague-Dawley, rat, 0.5 h, 0.5 μM, pH 7.4
In short: as §1

Structure (SMILES): OC(c1ccccn1)C1(C2CCC(F)(F)CC2)CCC1 (stereo not drawn) [Example 274, [1-(4,4-difluorocyclohexyl)cyclobutyl](pyridin-2-yl)methanol]
IC50 [1]: 1.1 to 5 µM
HUMAN MICROSOMAL STABILITY (% REMAINING AFTER 30 MINUTES) [2]: 55%
RAT MICROSOMAL STABILITY (% REMAINING AFTER 30 MINUTES) [3]: 10%

Structure (SMILES): Cn1c(C2(C(O)c3ccccn3)CCC2)nc2ccccc21 (stereo not drawn) [Example 275, [1-(1-methyl-1H-benzimidazol-2-yl)cyclobutyl](pyridin-2-yl)methanol]
IC50 [1]: 5.1 to 20 µM
HUMAN MICROSOMAL STABILITY (% REMAINING AFTER 30 MINUTES) [2]: 67%
RAT MICROSOMAL STABILITY (% REMAINING AFTER 30 MINUTES) [3]: 5.7%

Structure (SMILES): CC(C)(C)OC(=O)N1CCC(C2(C(O)c3ccccn3)CCC2)CC1 (stereo not drawn) [Example 279, tert-butyl 4-{1-[hydroxy(pyridin-2-yl)methyl]cyclobutyl}piperidine-1-carboxylate]
IC50 [1]: 5.1 to 20 µM
HUMAN MICROSOMAL STABILITY (% REMAINING AFTER 30 MINUTES) [2]: 22%
RAT MICROSOMAL STABILITY (% REMAINING AFTER 30 MINUTES) [3]: <0.01%

Structure (SMILES): OC(c1ccccn1)C1(C2CCC(C(F)(F)F)CC2)CCC1 (stereo not drawn) [Example 280, pyridin-2-yl{1-[4-(trifluoromethyl)cyclohexyl]cyclobutyl}methanol]
IC50 [1]: 1.1 to 5 µM
HUMAN MICROSOMAL STABILITY (% REMAINING AFTER 30 MINUTES) [2]: 9.0%
RAT MICROSOMAL STABILITY (% REMAINING AFTER 30 MINUTES) [3]: <0.01%

Structure (SMILES): OC(c1ccccn1)C1(C2CCCOC2)CCC1 (stereo not drawn) [Example 281, pyridin-2-yl[1-(tetrahydro-2H-pyran-3-yl)cyclobutyl]methanol]
IC50 [1]: 5.1 to 20 µM
HUMAN MICROSOMAL STABILITY (% REMAINING AFTER 30 MINUTES) [2]: >85%
RAT MICROSOMAL STABILITY (% REMAINING AFTER 30 MINUTES) [3]: 0.054%

Structure (SMILES): CC(=O)O[C@H](c1ccccn1)C1(c2ccc(OC(F)(F)F)cc2)CCC1 [Example 288, (S)-pyridin-2-yl{1-[4-(trifluoromethoxy)phenyl]cyclobutyl}methyl acetate]
IC50 [1]: 5.1 to 20 µM
HUMAN MICROSOMAL STABILITY (% REMAINING AFTER 30 MINUTES) [2]: <0.01%
RAT MICROSOMAL STABILITY (% REMAINING AFTER 30 MINUTES) [3]: <0.01%

Second part, the compound after the results:

IC50 [1]: 0.05 to 0.5 µM
HUMAN MICROSOMAL STABILITY (% REMAINING AFTER 30 MINUTES) [2]: 72%
RAT MICROSOMAL STABILITY (% REMAINING AFTER 30 MINUTES) [3]: 73%
Structure (SMILES): OC1CC(c2ccc(F)c(Cl)c2)([C@H](O)c2ccccn2)C1 (stereo partly drawn) [Example 276, 3-(3-chloro-4-fluorophenyl)-3-[(S)-hydroxy(pyridin-2-yl)methyl]-cyclobutanol]

IC50 [1]: 1.1 to 5 µM
HUMAN MICROSOMAL STABILITY (% REMAINING AFTER 30 MINUTES) [2]: >85%
RAT MICROSOMAL STABILITY (% REMAINING AFTER 30 MINUTES) [3]: >85%
Structure (SMILES): O=C1CC(c2cc(C(F)(F)F)ccn2)([C@H](O)c2ccccn2)C1 [Example 277, 3-[(S)-hydroxy(pyridin-2-yl)methyl]-3-[4-(trifluoromethyl)pyridin-2-yl]-cyclobutanone]

IC50 [1]: 5.1 to 20 µM
HUMAN MICROSOMAL STABILITY (% REMAINING AFTER 30 MINUTES) [2]: 83%
RAT MICROSOMAL STABILITY (% REMAINING AFTER 30 MINUTES) [3]: >85%
Structure (SMILES): O=C1CC(c2cc(C(F)(F)F)ccn2)([C@@H](O)c2ccccn2)C1 [Example 278, 3-[(R)-hydroxy(pyridin-2-yl)methyl]-3-[4-(trifluoromethyl)pyridin-2-yl]-cyclobutanone]

IC50 [1]: 0.501 to 1 µM
HUMAN MICROSOMAL STABILITY (% REMAINING AFTER 30 MINUTES) [2]: >85%
RAT MICROSOMAL STABILITY (% REMAINING AFTER 30 MINUTES) [3]: >85%
Structure (SMILES): OC1CC(c2cc(C(F)(F)F)ccn2)(C(O)c2ccccn2)C1 [Example 282, cis-3-[(S)-hydroxy(pyridin-2-yl)methyl]-3-[4-(trifluoromethyl)pyridin-2-yl]-cyclobutanol]

IC50 [1]: 0.501 to 1 µM
HUMAN MICROSOMAL STABILITY (% REMAINING AFTER 30 MINUTES) [2]: >85%
RAT MICROSOMAL STABILITY (% REMAINING AFTER 30 MINUTES) [3]: >85%
Structure (SMILES): OC1CC(c2cc(C(F)(F)F)ccn2)(C(O)c2ccccn2)C1 [Example 283, trans-3-[(S)-hydroxy(pyridin-2-yl)methyl]-3-[4-(trifluoromethyl)pyridin-2-yl]cyclobutanol]

IC50 [1]: 5.1 to 20 µM
HUMAN MICROSOMAL STABILITY (% REMAINING AFTER 30 MINUTES) [2]: >85%
RAT MICROSOMAL STABILITY (% REMAINING AFTER 30 MINUTES) [3]: 53%
Structure (SMILES): Cc1cc(C(F)(F)F)cc(C2([C@@H](O)c3ccccn3)CC(=O)C2)n1 [Example 291, 3-[(R)-hydroxy(pyridin-2-yl)methyl]-3-[6-methyl-4-(trifluoromethyl)pyridin-2-yl]cyclobutanone]
